Data as given in ChEMBL document CHEMBL5465560, “Selectivity Literature for EUbOPEN Chemogenomic Library” (2024).
Each block holds one molecule with its values, some of them ahead of it.

Tests used:
[1] = biological target: 5'-AMP-activated protein kinase catalytic subunit alpha-1 (Homo sapiens, UniProt Q13131); settings: at 10 µM
[2] = biological target: Histone-lysine N-methyltransferase, H3 lysine-36 specific (Homo sapiens) (UniProt Q96L73); assay: Selectivity interaction (Methyltransferase screen (radiometric assays, panel of 8 PRMTs, 21 protein lysine methyltransferases, 3 DNA methyltransferases, and one RNA methyltransferase)) EUB0000272b NSD1; settings: at 1 µM
[3] = biological target: Tyrosine-protein kinase Fer (Homo sapiens) (UniProt P16591); assay: Selectivity interaction (Ambit KINOMEscan and KiNATiv profiling in Jurkat cells) EUB0000090b FER; format: cell-based; settings: at 1 µM
[4] = biological target: Citron Rho-interacting kinase (Homo sapiens) (UniProt O14578); assay: Selectivity interaction (KinomeScan (DiscoverX)) EUB0000655a CIT; settings: at 10 µM
[5] = biological target: T1, Membrane-associated tyrosine- and threonine-specific cdc2-inhibitory kinase (Homo sapiens) (UniProt Q99640); assay: Selectivity interaction (KinomeScan (DiscoverX)) EUB0000655a PKMYT1; settings: at 10 µM
T1 sequence (whole entry): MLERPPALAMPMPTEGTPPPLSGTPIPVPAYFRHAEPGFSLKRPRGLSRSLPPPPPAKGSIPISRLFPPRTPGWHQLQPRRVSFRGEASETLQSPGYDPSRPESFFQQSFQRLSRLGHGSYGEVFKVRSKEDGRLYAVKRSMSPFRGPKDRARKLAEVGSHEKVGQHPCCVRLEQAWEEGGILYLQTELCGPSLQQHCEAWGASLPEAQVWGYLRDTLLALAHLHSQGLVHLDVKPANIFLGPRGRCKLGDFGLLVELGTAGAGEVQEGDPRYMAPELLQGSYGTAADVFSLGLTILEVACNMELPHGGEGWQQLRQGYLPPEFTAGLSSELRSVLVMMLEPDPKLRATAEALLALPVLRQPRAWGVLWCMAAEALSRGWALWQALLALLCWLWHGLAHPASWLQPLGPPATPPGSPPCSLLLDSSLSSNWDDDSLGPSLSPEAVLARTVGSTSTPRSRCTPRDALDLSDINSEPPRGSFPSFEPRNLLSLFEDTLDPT

[6] = biological target: T2, Serine/threonine-protein kinase RIO3 (Homo sapiens) (UniProt O14730); assay: Selectivity interaction (KinomeScan (DiscoverX)) EUB0001079a RIOK3; settings: at 1 µM
T2 sequence (whole entry): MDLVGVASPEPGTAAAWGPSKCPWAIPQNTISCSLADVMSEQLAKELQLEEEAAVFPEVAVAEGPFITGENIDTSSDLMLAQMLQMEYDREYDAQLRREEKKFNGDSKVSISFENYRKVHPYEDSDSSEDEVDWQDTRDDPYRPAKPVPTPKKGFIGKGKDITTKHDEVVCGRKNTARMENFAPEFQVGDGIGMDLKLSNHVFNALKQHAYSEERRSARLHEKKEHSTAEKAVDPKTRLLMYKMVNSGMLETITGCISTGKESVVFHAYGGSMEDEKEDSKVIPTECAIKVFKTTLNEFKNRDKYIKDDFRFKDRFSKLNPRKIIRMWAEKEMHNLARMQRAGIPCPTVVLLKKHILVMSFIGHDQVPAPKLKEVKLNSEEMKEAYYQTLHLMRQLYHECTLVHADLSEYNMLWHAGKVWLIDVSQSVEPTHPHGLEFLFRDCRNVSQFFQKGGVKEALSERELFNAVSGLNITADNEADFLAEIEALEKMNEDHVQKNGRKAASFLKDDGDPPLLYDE

[7] = biological target: Fibroblast growth factor receptor 1 (Homo sapiens, UniProt P11362); assay: Selectivity interaction (KinomeScan (DiscoverX)) EUB0000607a FGFR1; settings: at 10 µM
[8] = biological target: T3, Dual specificity mitogen-activated protein kinase kinase 6 (Homo sapiens) (UniProt P52564); assay: Selectivity interaction (Kinase panel (DSF assay)) EUB0001558a MAP2K6
T3 sequence (whole entry): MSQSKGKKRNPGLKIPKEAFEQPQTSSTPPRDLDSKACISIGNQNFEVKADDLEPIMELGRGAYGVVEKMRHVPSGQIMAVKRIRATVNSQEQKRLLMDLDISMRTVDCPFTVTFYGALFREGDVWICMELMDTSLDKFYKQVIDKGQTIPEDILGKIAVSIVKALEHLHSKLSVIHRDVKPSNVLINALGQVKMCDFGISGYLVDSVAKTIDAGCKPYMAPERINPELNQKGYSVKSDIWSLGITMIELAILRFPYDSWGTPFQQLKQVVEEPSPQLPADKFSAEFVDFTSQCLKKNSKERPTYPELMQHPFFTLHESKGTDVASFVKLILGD

[9] = system: Phosphatidylinositol 4,5-bisphosphate 3-kinase catalytic subunit alpha isoform (Homo sapiens), P42336 [H1047L]; settings: at 10 µM
Chain of Phosphatidylinositol 4,5-bisphosphate 3-kinase catalytic subunit alpha isoform (Homo sapiens), P42336 [H1047L] (P42336 whole entry H1047L, canonical isoform): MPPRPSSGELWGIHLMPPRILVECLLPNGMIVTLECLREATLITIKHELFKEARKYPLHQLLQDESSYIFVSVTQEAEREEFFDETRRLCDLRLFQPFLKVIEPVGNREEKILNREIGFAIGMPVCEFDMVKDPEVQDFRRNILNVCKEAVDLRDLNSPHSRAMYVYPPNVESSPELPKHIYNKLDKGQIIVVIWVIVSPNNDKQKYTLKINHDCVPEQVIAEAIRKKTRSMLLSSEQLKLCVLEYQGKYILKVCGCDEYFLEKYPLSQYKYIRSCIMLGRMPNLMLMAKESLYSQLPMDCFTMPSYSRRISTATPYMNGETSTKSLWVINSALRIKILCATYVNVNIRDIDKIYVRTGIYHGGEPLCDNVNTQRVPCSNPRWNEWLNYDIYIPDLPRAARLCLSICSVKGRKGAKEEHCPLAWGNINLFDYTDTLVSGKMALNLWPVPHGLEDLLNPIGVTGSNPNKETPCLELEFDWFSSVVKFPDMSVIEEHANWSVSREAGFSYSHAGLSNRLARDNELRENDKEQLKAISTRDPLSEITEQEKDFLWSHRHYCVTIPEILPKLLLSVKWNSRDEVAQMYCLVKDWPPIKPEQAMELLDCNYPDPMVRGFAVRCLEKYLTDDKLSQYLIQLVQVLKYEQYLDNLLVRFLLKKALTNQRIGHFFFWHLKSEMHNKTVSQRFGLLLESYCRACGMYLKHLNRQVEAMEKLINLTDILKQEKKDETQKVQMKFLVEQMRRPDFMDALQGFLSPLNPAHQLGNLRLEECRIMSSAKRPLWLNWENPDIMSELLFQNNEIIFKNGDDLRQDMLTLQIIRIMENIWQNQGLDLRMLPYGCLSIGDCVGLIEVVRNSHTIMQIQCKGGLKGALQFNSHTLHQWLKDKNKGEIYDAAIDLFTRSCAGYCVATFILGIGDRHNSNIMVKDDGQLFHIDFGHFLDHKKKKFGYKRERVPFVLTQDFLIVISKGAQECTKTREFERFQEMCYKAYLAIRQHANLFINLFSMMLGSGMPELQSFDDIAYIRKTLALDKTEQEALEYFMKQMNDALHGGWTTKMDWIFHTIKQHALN

[10] = biological target: Tyrosine-protein kinase Fgr (Homo sapiens) (UniProt P09769); assay: Selectivity interaction (Upstate Kinase Profiler service (Millipore)) EUB0000056c FGR; settings: at 1 µM
[11] = biological target: Tyrosine-protein kinase receptor UFO (Homo sapiens) (UniProt P30530); assay: Selectivity interaction (Upstate Kinase Profiler service (Millipore)) EUB0000056c AXL; settings: at 1 µM
[12] = biological target: Mitogen-activated protein kinase 8 (Homo sapiens, UniProt P45983); assay: Selectivity interaction (Upstate Kinase Profiler service (Millipore)) EUB0000056c MAPK8; settings: at 1 µM
[13] = biological target: Serine/threonine-protein kinase SIK2 (Homo sapiens) (UniProt Q9H0K1); assay: Selectivity interaction (Kinase panel (Invitrogen)) EUB0000639a SIK2; settings: at 200 nM
[14] = biological target: Serine/threonine-protein kinase SMG1 (Homo sapiens) (UniProt Q96Q15); assay: Selectivity interaction (ActivX KiNativ screen (kinase selectivity in THP-1 cell lysates)) EUB0000639a SMG1; format: subcellular; settings: lysate, at 1 µM
[15] = biological target: Casein kinase I isoform gamma-3 (Homo sapiens) (UniProt Q9Y6M4); assay: Selectivity interaction (KinomeScan (DiscoverX)) EUB0000229b CSNK1G3; settings: at 10 µM
[16] = biological target: PAS domain-containing serine/threonine-protein kinase (Homo sapiens) (UniProt Q96RG2); assay: Selectivity interaction (ProQinase) EUB0000171b PASK
Chain of PAS domain-containing serine/threonine-protein kinase (Homo sapiens) (Q96RG2 whole entry, the tested form may be a part): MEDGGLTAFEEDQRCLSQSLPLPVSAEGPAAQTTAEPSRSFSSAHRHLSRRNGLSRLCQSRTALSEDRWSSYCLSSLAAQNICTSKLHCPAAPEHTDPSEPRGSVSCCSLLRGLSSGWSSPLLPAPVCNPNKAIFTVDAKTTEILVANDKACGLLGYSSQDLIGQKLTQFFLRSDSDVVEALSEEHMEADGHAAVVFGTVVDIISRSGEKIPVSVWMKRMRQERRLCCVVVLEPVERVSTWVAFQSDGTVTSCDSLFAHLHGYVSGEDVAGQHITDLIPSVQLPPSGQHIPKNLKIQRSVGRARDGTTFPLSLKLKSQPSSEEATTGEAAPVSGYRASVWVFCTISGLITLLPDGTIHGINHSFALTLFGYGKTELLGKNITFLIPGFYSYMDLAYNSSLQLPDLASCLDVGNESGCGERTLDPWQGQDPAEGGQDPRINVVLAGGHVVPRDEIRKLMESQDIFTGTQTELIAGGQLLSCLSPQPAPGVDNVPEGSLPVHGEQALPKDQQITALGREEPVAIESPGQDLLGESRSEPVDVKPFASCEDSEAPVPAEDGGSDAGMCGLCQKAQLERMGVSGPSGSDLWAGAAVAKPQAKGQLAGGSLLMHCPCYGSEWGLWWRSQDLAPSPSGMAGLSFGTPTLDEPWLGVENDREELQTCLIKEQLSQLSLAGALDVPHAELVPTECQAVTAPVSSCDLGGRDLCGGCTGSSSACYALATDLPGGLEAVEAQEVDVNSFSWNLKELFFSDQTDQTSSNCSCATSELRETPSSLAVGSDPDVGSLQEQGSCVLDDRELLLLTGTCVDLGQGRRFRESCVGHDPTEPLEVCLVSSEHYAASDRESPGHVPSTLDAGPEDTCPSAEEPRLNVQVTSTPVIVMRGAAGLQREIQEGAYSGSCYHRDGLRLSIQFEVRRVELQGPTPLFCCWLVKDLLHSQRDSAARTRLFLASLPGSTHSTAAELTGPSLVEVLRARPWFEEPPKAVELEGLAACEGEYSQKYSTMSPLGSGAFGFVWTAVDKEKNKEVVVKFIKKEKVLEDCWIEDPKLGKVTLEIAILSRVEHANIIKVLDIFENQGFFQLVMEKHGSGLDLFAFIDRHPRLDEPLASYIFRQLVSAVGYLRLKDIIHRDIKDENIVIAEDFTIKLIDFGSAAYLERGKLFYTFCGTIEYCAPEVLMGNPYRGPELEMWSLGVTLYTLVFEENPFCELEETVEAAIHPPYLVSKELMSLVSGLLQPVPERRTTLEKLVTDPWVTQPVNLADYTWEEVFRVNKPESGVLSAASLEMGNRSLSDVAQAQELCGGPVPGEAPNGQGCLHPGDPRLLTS

[17] = system: eIF-2-alpha kinase GCN2 (Homo sapiens), Q9P2K8 [S808G]; assay: Selectivity interaction (KinomeScan (DiscoverX)) EUB0000666a EIF2AK4; settings: at 10 µM
Chain of eIF-2-alpha kinase GCN2 (Homo sapiens), Q9P2K8 [S808G] (Q9P2K8 whole entry S808G): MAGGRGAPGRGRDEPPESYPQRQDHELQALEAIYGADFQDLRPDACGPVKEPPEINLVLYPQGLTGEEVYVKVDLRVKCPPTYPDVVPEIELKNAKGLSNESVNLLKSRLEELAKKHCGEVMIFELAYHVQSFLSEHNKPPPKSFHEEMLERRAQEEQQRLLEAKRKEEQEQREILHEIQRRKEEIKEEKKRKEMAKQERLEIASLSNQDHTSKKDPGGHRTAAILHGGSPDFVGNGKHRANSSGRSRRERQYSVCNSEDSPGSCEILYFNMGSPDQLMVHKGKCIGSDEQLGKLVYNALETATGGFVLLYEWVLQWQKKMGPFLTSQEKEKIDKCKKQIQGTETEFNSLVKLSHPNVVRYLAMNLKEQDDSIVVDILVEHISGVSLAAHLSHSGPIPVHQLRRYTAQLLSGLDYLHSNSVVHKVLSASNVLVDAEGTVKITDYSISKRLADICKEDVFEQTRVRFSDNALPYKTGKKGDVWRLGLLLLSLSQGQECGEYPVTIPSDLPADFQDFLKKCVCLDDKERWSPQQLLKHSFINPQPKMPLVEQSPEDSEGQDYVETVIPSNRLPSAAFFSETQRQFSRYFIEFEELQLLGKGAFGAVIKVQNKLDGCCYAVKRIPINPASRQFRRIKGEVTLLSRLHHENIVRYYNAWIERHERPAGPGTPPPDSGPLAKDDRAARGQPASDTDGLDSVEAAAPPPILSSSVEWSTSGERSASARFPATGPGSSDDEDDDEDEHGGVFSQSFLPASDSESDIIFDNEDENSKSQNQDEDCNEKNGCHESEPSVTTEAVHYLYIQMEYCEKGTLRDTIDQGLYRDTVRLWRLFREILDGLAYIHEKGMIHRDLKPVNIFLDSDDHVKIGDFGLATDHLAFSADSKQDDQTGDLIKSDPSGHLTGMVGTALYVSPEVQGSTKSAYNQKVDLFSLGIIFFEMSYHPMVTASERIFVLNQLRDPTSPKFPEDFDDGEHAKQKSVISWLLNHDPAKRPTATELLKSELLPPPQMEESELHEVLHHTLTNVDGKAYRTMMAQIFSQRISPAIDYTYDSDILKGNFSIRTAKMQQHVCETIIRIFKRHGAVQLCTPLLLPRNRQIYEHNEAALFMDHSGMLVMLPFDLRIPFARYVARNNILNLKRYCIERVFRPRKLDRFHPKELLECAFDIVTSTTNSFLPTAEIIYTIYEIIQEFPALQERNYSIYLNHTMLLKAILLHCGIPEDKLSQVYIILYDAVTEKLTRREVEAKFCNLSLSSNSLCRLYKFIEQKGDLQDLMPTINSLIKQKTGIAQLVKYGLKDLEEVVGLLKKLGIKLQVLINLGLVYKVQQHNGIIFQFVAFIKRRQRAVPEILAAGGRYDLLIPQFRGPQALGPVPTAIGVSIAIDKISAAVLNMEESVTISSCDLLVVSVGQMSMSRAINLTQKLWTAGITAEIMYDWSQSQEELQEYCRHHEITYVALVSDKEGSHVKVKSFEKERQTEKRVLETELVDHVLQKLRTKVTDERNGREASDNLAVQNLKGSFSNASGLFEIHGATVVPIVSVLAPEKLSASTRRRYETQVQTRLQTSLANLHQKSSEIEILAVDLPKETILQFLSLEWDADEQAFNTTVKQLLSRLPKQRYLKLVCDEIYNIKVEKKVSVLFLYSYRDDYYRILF

[18] = biological target: Rho-associated protein kinase 2 (Homo sapiens, UniProt O75116); assay: Selectivity interaction (KinomeScan (DiscoverX)) EUB0000092b ROCK2; settings: at 10 µM
[19] = biological target: Transient receptor potential cation channel subfamily M member 6 (Homo sapiens) (UniProt Q9BX84); assay: Selectivity interaction (KinomeScan (DiscoverX)) EUB0000092b TRPM6; settings: at 10 µM
[20] = biological target: MAP kinase-interacting serine/threonine-protein kinase 2 (Homo sapiens, UniProt Q9HBH9); assay: Selectivity interaction (LanthaScreen Eu Kinase Binding Assay) EUB0001632a MKNK2; settings: at 10 µM
[21] = biological target: Ribosomal protein S6 kinase alpha-6 (Homo sapiens, UniProt Q9UK32); assay: Selectivity interaction (KinomeScan (DiscoverX)) EUB0000695a RPS6KA6; settings: at 100 nM
Chain of Ribosomal protein S6 kinase alpha-6 (Q9UK32 whole entry): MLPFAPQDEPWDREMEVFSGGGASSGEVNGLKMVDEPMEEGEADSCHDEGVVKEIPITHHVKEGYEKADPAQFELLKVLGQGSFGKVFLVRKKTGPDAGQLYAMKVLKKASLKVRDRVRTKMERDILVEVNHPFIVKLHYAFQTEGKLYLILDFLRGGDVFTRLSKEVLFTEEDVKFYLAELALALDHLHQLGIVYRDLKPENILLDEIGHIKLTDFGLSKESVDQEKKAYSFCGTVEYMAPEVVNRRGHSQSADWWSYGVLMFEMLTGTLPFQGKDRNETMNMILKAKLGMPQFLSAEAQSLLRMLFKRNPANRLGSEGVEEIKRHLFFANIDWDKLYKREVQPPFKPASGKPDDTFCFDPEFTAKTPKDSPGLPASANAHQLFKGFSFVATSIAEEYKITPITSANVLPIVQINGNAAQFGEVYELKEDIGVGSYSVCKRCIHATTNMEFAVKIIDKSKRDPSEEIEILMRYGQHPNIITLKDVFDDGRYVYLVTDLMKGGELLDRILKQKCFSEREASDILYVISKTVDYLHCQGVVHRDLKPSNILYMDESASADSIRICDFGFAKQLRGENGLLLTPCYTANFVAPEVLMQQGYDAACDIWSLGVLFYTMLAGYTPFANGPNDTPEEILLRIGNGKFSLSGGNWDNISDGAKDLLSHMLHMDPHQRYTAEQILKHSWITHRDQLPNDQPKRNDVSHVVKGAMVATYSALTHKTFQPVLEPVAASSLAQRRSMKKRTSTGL

% of control [1]: 100%
SMILES: CCN(CC)CCCCNc1ncc2cc(-c3cc(OC)cc(OC)c3)c(NC(=O)NC(C)(C)C)nc2n1

% of activity [2]: 97.7%
SMILES: Cc1cc(C)cc([C@H]2c3cc(C)ccc3NC(=O)CN2C(=O)c2ccc(Br)s2)c1

SMILES: CN(C)C/C=C/C(=O)Nc1ccc(C(=O)N2CCCC(Nc3ncc(Cl)c(-c4c[nH]c5ccccc45)n3)C2)cc1 (configuration not stated)
% of control [3]: 82%

SMILES: CN(C)CCOc1ccc(-c2nc(-c3ccncc3)c(-c3ccc4c(c3)CC/C4=N\O)[nH]2)cc1
% of control [4]: 0.8%
% of control [5]: 100%

SMILES: Nc1cnc(N2CCc3cc(S(=O)(=O)Nc4c(F)cc(Cl)cc4F)cc(N4CCCC4=O)c32)nc1 [TP-020n]
% of control [6]: 100%

SMILES: CNC(=O)Nc1ccc(-c2nc(N3CC4CCC(C3)O4)c3cnn(C4CCC5(CC4)OCCO5)c3n2)cc1
% of control [7]: 100%

SMILES: CC(C)(O)[C@H](F)CN1Cc2cc(NC(=O)c3cnn4cccnc34)c(N3CCOCC3)cc2C1=O
dTM [8]: 0.3 K

SMILES: COCC(=O)NC/C=C/c1ccc2ncnc(Nc3ccc(Oc4ccc(C)nc4)c(C)c3)c2c1 [CP-724714]
% of control [9]: 100%

% of inhibition [10]: 9%
% of inhibition [11]: 58%
% of inhibition [12]: 10%
SMILES: Cc1ccc(-c2ccc3c(ccc4sc5c(c43)NC[C@@H](C)NC5=O)n2)cn1

% of inhibition [13]: 2.07%
% of inhibition [14]: 4.9%
SMILES: CC[C@@H]1[C@H](F)C(=O)N[C@@H]1COc1nccc2cc(C(N)=O)c(OC)cc12 [ZIMLOVISERTIB]

SMILES: COc1cc(N(C)c2ccnc3ccc(C(F)(F)F)cc23)cc(OC)c1OC
% binding [15]: 86%

% of control ([16]; at 1 µM): 81%
% of control ([16]; at 5 µM): 55%
SMILES: C=CC(=O)Nc1cccc(C(=O)Nc2ccc(Nc3cc(-c4[nH]c(SC)nc4C)ccn3)cc2)c1

SMILES: O=C(NOC[C@H](O)CO)c1ccc(F)c(F)c1Nc1ccc(I)cc1F
% of control [17]: 84%

SMILES: CCC(=O)N1CCN(c2ccc(-n3c(=O)ccc4cnc5ccc(-c6cnc7ccccc7c6)cc5c43)cc2C(F)(F)F)CC1
% of control [18]: 50%
% of control [19]: 100%

% of inhibition [20]: -36%
SMILES: Cn1cc(-n2cnc3c(NCc4nc5cc(Cl)c(Cl)cc5[nH]4)nc(N4CCOCC4)nc32)cn1

SMILES: Cc1cc(F)c(C(=O)Nc2cccc(-c3nncn3C(C)C)n2)cc1-n1cnc(C2CC2)c1
% of control [21]: 22%
